Measurements taken from article PMC8149581 (Chemistry of Heterocyclic Compounds, 2021).
Values after ≈ are worked out from the molar mass of the structure shown. Read-outs that look alike come from different tables or passages of the source.

Legend:
[1] = system: influenza A/Puerto Rico/8/34 (H1N1) virus; assay type: cell-based
[2] = Simultaneous thermal analysis; assay type: physicochemical
in vitro = details: dog

Compound: Ic1ccc(-c2nnn(C34CC5CC(CC(C5)C3)C4)n2)cc1 [Compound 3a, 2-(Adamantan-1-yl)-5-(4-iodophenyl)-2 H -tetrazole]
- Selectivity index (SI) ([1]; ratio of CC50 to IC50): 1

Compound: Clc1ccc(-c2nnn(C34CC5CC(CC(C5)C3)C4)n2)cc1 [Compound 3d, 2-(Adamantan-1-yl)-5-(4-chlorophenyl)-2 H -tetrazole]
- Selectivity index (SI) [1]: 2

Compound: O=[N+]([O-])c1cc(-c2nnn(C34CC5CC(CC(C5)C3)C4)n2)ccc1O [Compound 3g, 4-[(2-Adamantan-1-yl)-2 H -tetrazol-5-yl]-2-nitrophenol]
- Temperature from which complete decomposition occurs ([2]; argon flow, heating rate 10°C/min): ≥ 250 °C
- Temperature of release of molecular nitrogen (loss of weight) ([2]; argon flow, heating rate 10°C/min, strong exothermic effect): 156.2 °C
- Loss of mass at complete decomposition ([2]; starting with 250°C): 33.6%

Compound: Nc1c(Br)cc([N+](=O)[O-])cc1-c1nnn(C23CC4CC(CC(C4)C2)C3)n1 [Compound 3h, 2-[2-(Adamantan-1-yl)-2 H -tetrazol-5-yl]-6-bromo-4-nitroaniline]
- Selectivity index (SI) [1]: 11

Compound: Nc1cc(-c2nnn(C34CC5CC(CC(C5)C3)C4)n2)ccc1O [Compound 3i, 4-[2-(Adamantan-1-yl)-2 H -tetrazol-5-yl]-2-aminophenol]
- Selectivity index (SI) [1]: 2

Compound: CC(N)C12CC3CC(CC(C3)C1)C2 (stereo not drawn) [Rimantadine, reference compound]
- Selectivity index (SI) [1]: 5
- CC50 (in vitro): 60 ± 4 µg/mL (≈ 335 µM)
